For one data set, the system named is PCNA-Y250I. The data set can be described thus: Isothermal titration calorimetry (ITC), wild-type PIP titrated into PCNA-Y250I. Type of data set: binding, human. To be noted: 23 °C, 10 mM sodium phosphate, pH 7.0, 10 mM NaCl. The protocol:
Recombinant PCNA, PCNA-Y250I, and the PIP peptides (wild-type, R426D) were expressed and purified as described in the Supplementary Materials section—“Expression and purification of recombinant proteins”. The proteins were dialyzed against three 4-litre changes of ITC buffer containing 10 mM sodium phosphate, pH 7.0, and 10 mM NaCl at 4 °C overnight. The concentrations of PCNA and PIP peptides were determined by measuring tyrosine absorption at A280nm. ITC titrations of peptides into PCNA were performed at 23 °C in the ITC buffer (10 mM sodium phosphate, pH 7.0, 10 mM NaCl) using a MicroCal VP-ITC system. The concentrations of injected wild-type and mutant PIP in the syringe varied from 200 to 500 μM, whereas PCNA in the ITC sample cell varied depending on the experiment from 20 to 50 μM PCNA monomer. The protein and peptide samples were degassed before the ITC run. Data analysis was performed using the MicroCal Origin 7.0 software (OriginLab Corporation, Northampton, MA, USA) and all experiments fit the single binding site model. […]
S1. […] The C-terminal tyrosine was added to aid in peptide detection during the purification by measuring the absorbance at 280 nm. […] The next day, the saturated cells were diluted to 0.05 OD measured at A600 nm and the cells were grown at 37°C until the cells reach the mid-exponential phase of 0.6-0.8 at OD A600 nm. […]
On the technique in general: Isothermal titration calorimetry measures the heat released or taken up as one component is titrated into another.

A further data set concerns the target T1, human PCNA (Homo sapiens, UniProt P12004).
T1 construct: His6 (C); made in house; host or cells: E. coli Codon Plus BL21(DE3) pLysS
The data set can be described thus: Isothermal titration calorimetry (ITC), PIP peptide titrated into wild-type PCNA. The data set is classed as binding. An excerpt:
The wild-type and R426D peptides were expressed as GST fusions in E. coli, purified to homogeneity (see Materials and Methods) and used in isothermal titration calorimetry (ITC) assays with human PCNA purified from E. coli.
Recombinant PCNA, PCNA-Y250I, and the PIP peptides (wild-type, R426D) were expressed and purified as described in the Supplementary Materials section—“Expression and purification of recombinant proteins”. The proteins were dialyzed against three 4-litre changes of ITC buffer containing 10 mM sodium phosphate, pH 7.0, and 10 mM NaCl at 4 °C overnight. The concentrations of PCNA and PIP peptides were determined by measuring tyrosine absorption at A280nm. ITC titrations of peptides into PCNA were performed at 23 °C in the ITC buffer (10 mM sodium phosphate, pH 7.0, 10 mM NaCl) using a MicroCal VP-ITC system. The concentrations of injected wild-type and mutant PIP in the syringe varied from 200 to 500 μM, whereas PCNA in the ITC sample cell varied depending on the experiment from 20 to 50 μM PCNA monomer. The protein and peptide samples were degassed before the ITC run. Data analysis was performed using the MicroCal Origin 7.0 software (OriginLab Corporation, Northampton, MA, USA) and all experiments fit the single binding site model.
Supplementary Materials-Expression and purification of recombinant proteins
S1. Expression and purification of GST-PIP fusion proteins in Escherichia coli Wild-type p150 PIP and R426D peptides were constructed as GST-fusion proteins with a tyrosine at the C-terminus of the peptide. The C-terminal tyrosine was added to aid in peptide detection during the purification by measuring the absorbance at 280 nm. The DNA fragments encoding the GST fusion proteins were inserted into a pGEX-TEV vector, which is essentially a modified pGEX-2T vector where the thrombin cleavage site was replaced with a TEV cleavage site. The pGEX-TEV plasmid was digested with BamHI and EcoRI and ligated to DNA fragments encoding either the p150 PIP wild-type and R426D. The plasmids pGEX-TEV-PIP wild type and pGEX-TEV-PIP R426D were con-firmed by DNA sequencing and then expressed in Escherichia coli host strain TOPP2 (Strat-agene) with 100 µg/ml ampicillin to saturation at 37°C. The next day, the saturated cells were diluted to 0.05 OD measured at A600 nm and the cells were grown at 37°C until the cells reach the mid-exponential phase of 0.6-0.8 at OD A600 nm. The cells were then in-duced with 1 mM isopropyl-D-thiogalactopyranoside (IPTG) for 4 h. Eight litres of cell culture were grown each for the wild-type and R426D mutant. The cells were then har-vested by centrifugation in an Avanti J-26XP high-performance centrifuge from Beckman Coulter with a fixed angle rotor (JLA-8.1000) at 9000 x g for 30 min at 4°C. The pellet from 1 litre cells equivalent was lysed in 10 ml of lysis buffer containing 20 mM Tris pH 7.5, 1 M NaCl, 0.2 mM EDTA, 1 mM DTT, 50 µg/ml lysozyme, 1 mM AEBSF and one tablet of cOmplete™ Mini EDTA-free Protease Inhibitor Cocktail Tablets (Roche). The cell pellet was sonicated in the lysis buffer on ice, at power output level 4 with 10 seconds pulse on and 30 seconds off at 6 watts using a Misonix 3000 Ultrasonic cell disruptor and wider probe. The lysate was clarified by centrifugation for 30 min in an Avanti J-26XP with a fixed angle rotor 25.50 at 30966 x g at 4°C. The clarified supernatant was incubated on a nutator for 6 h at 4°C with 10 ml of glutathione-Sepharose (GSH) resin (Amersham) pre-washed and equilibrated with lysis buffer. After incubation the GSH resin was pelleted, the unbound supernatant was removed, and the resin was washed thrice with lysis buffer and twice with Tobacco Etch Virus (TEV) protease buffer (20 mM sodium phosphate pH 6.5, 50 mM NaCl, 2 mM DTT). The peptide was cleaved from the GSH resin by incubating in the presence of TEV protease overnight at 4°C. The next day, the supernatant was har-vested by centrifugation, and the GSH resin was washed twice with 20 mM sodium phos- […]

Data set [1] can be described thus: Size exclusion chromatography of PCNA-Y250I. Type of data set: physicochemical. How it is done: S3. Expression and purification of wild-type and mutant PCNA proteins in Escherichia […]
PCNA wild-type and mutants were expressed and purified as previously reported. In short, wild-type or mutant plasmids in pET23-C-His6-PCNA vectors were trans-formed and expressed in Codon Plus BL21(DE3) pLysS E. coli (Stratagene) cells. Single colonies were inoculated and grown overnight in the Luria-Bertani medium containing 100 µg/mL ampicillin to saturation at 37°C. The next day the cells were diluted and grown to mid-exponential phase (0.6-0.8) at OD600 nm, and the expression was induced with 1 mM isopropyl-β-D-thiogalactopyranoside (IPTG) for 4 h. PCNA mutants were transformed and expressed in a similar way.
Cells were spun in an Avanti J-26XP high performance centrifuge from Beckman Coul-ter with a fixed angle rotor (JLA-8.1000) at 9000 x g for 30 min at 4°C and the pellets from 1 litre of cell culture were resuspended in 50 mL of lysis buffer containing 50 mM sodium phosphate pH 8.0, 150 mM NaCl, 10% glycerol, 20 mM imidazole, 0.02% nonidet P-40, 2 mM DTT. […]
The eluate was subsequently purified with a Superdex™ 200 gel filtration column (GE Healthcare) in gel filtration buffer 20 mM Tris pH 7.5, 150 mM NaCl, 1 mM DTT. The fractions corresponding to PCNA homotrimer were pooled, concentrated with an amicon concentrator with 3 kDa MWCO, quantified using absorbance at A280 nm, and stored at - […]
In general terms: SEC sorts molecules by how far they enter the pores of the column.

[2] abbreviates: ITC at 296 K, 10 mM Na-phosphate (pH 7.0), 10 mM NaCl.

T1 sequence (P12004 whole entry): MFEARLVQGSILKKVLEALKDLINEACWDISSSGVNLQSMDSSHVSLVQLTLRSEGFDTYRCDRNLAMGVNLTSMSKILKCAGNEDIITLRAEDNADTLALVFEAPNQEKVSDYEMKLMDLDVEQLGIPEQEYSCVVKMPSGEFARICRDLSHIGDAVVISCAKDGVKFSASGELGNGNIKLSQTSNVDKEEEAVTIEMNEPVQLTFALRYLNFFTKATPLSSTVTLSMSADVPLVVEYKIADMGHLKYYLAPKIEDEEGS

Broadly, the Kd is the free concentration of one partner at which half of the binding sites on the other are occupied at equilibrium, for simple one-to-one binding. Read a high Kd as lower affinity. Take “KAEITRFF [CAF-1 PIP wild type, wild-type p150 PIP expressed as GST fusion with C-terminal tyrosine, TEV-cleaved and purified, used for ITC]”: in the data set on PCNA-Y250I, the “heat exchange / binding to PCNA-Y250I” value is “no detectable heat exchange observed by ITC”. For the same substance, at human PCNA (setting [2]), the “N (stoichiometry of peptide binding per PCNA monomer)” value is recorded as 0.83, the ΔG is -6.25 kcal/mol, the ΔH is -1.868 kcal/mol and the ΔS came to 14.8 cal K^−1 mol^−1. This substance also displayed a Kd at human PCNA (ITC at 296 K, 10 mM Na-phosphate (pH 7.0), 10 mM NaCl, one binding site per PCNA monomer, PIP 200 to 500 μM in syringe, PCNA 20 to 50 μM monomer) of 24 µM. For the same substance, the “stoichiometry (PIP per PCNA monomer)” value at human PCNA (ITC, 23 °C, 10 mM sodium phosphate, pH 7.0, 10 mM NaCl) stood at 0.83.
Take “PCNA-Y250I: PCNA mutated at the tyrosine involved in the cation-π interaction with CAF-1 p150 Arg426”: the aggregation entry in data set [1] is “no evidence of aggregation”.

For the origin of these results see publication PMC9570017, “Unorthodox PCNA Binding by Chromatin Assembly Factor 1” (International Journal of Molecular Sciences, 2022).
